Paper PMC9299836 (eLife, 2022)
Several values for one entry are separate records, joined by “and”; a condition that tells them apart may be missing. Equal entries are not always repeated.

Key:
mGluR2 [1] = molecular target: mGluR2 (Mus musculus, UniProt Q14BI2, A548F); experiment: Live-cell FRET, azi-CRD (cysteine-rich domain) sensor in HEK293T cells; details: for Mean normalized FRET response, azi-CRD PAM DRC: glutamate + 5μM LY487379, maximal response normalized to 1mM glutamate
mGluR2 [2] = molecular target: T1, mGluR2 (Mus musculus, UniProt Q14BI2); experiment: Live-cell FRET, SNAP-m2 (VFT domain) inter-subunit sensor in HEK293T cells; details: for SNAP-m2 FRET response (PAM DRC) / SNAP-m2 FRET response (PAM DRC), Mean: Glutamate + 5μM LY487379; for SNAP-m2 FRET response (PAM DRC): individual cells, normalized to 1mM glutamate;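 for all read-outs here: apparent FRET efficiency from whole-membrane ROIs of single cells, corrected for donor bleed-through and background, ΔFRET as treatment minus pretreatment signal, recorded at room temperature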
mGluR2 [3] = molecular target: mGluR2 (Mus musculus, UniProt Q14BI2, INS715F); experiment: Live-cell FRET, azi-ECL2 (7TM domain, extracellular loop 2) sensor in HEK293T cells; details: for Mean normalized azi-ECL2 FRET response: glutamate + 5μM modulator, maximal response normalized to 1mM glutamate;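 for all read-outs here: Cy3/Cy5 click-labeled sensor, whole-membrane ROIs per cell, apparent FRET after bleed-through correction, ΔFRET as treatment minus pre-treatment signal, at room temperature, at least three biological replicates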
mGluR2 [4] = molecular target: T1, mGluR2; experiment: Functional calcium imaging, SNAP-mGluR2 (no FLAG-tag) with chimeric G protein Gqo5 in HEK293T cells; assay type: cell-based; parameters: Full length mGluR2 construct with an amber codon (TAG) mutation of amino acid A548 (azi-CRD) or N-terminal SNAP-tag (SNAP-mGluR2); host or cells: HEK293T; details: modulator alone; precluded analysis of glutamate potency and efficacy
[5] = 5μM LY487379, ([1 mM glutamate + modulator] - [1 mM glutamate]) × 100

Chain of mGluR2 (Mus musculus, UniProt Q14BI2, INS715F) (Q14BI2 with tags, fused parts or gaps INS715F): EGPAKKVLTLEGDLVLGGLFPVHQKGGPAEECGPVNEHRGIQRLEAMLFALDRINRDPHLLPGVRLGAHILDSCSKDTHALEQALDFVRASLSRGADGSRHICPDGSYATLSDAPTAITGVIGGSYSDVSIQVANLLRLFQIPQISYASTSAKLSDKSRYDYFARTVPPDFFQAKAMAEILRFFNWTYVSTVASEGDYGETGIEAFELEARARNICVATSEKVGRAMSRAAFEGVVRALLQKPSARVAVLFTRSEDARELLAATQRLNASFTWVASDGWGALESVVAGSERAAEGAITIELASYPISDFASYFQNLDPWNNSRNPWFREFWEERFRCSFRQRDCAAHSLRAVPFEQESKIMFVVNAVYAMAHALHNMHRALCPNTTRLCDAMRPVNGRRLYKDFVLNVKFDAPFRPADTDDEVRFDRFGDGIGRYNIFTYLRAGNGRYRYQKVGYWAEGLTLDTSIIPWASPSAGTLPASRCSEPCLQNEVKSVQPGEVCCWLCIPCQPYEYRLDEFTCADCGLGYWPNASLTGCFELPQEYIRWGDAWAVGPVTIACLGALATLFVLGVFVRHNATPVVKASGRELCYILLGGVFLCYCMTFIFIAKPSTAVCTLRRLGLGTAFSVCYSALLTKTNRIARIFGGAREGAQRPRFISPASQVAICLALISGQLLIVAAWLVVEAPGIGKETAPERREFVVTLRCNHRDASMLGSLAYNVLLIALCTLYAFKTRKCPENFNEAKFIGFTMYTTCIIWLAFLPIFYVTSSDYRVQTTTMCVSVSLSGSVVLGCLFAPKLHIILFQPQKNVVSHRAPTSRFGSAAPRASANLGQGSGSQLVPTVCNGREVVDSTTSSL
T1 sequence (Q14BI2 19-872): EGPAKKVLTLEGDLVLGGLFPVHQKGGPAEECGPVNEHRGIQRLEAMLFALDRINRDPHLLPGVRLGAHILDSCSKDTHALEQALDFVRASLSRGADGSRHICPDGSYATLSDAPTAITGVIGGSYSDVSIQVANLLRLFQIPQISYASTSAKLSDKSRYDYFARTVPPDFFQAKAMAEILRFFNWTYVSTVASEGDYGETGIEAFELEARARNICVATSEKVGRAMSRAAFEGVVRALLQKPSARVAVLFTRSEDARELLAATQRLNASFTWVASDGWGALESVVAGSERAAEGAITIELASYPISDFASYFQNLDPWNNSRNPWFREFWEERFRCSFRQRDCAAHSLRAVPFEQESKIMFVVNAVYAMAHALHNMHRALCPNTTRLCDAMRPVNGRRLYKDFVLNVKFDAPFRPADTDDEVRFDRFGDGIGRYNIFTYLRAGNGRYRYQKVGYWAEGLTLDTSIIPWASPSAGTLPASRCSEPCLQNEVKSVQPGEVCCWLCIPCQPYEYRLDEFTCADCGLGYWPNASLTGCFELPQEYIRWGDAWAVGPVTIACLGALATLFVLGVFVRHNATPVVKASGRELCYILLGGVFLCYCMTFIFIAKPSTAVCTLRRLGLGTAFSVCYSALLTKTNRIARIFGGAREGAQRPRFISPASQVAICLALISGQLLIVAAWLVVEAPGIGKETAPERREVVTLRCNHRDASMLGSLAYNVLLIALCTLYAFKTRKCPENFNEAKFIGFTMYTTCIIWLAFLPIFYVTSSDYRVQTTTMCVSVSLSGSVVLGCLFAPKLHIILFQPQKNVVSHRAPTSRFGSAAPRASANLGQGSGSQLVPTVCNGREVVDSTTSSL
Chain of mGluR2 (Mus musculus, UniProt Q14BI2, A548F) (Q14BI2 19-872 A548F): as the sequence (Q14BI2 19-872) above, with A530F counted along it

- azi-CRD - ΔEfficacy, Mean ΔEfficacy (mGluR2 [1]; [5]): 56.4462
- Hill slope of glutamate titration (mGluR2 [1]; azi-CRD sensor, + 5 μM modulator): 0.91
- Mean max response (normalized max ΔFRET) (mGluR2 [1]; azi-CRD, 1 mM glutamate + 5 μM modulator, normalized to 1 mM glutamate): 1.56
- Mean ΔPotency (mGluR2 [1]; azi-CRD, 5μM modulator, (([modulator + glutamate]EC50 – [glutamate] EC50)/[glutamate] EC50) × 100): -61.3748
- Mean normalized FRET response, azi-CRD PAM DRC (mGluR2 [1]; log[Glutamate] (M) -3): 1.564
- Mean normalized FRET response, azi-CRD PAM DRC (mGluR2 [1]; log[Glutamate] (M) -4.1549): 1.506
- Mean normalized FRET response, azi-CRD PAM DRC (mGluR2 [1]; log[Glutamate] (M) -4.52288): 1.431
- Mean normalized FRET response, azi-CRD PAM DRC (mGluR2 [1]; log[Glutamate] (M) -5): 1.21
- Mean normalized FRET response, azi-CRD PAM DRC (mGluR2 [1]; log[Glutamate] (M) -5.39794): 0.9243
- Mean normalized FRET response, azi-CRD PAM DRC (mGluR2 [1]; log[Glutamate] (M) -5.82391): 0.548
- Mean normalized FRET response, azi-CRD PAM DRC (mGluR2 [1]; log[Glutamate] (M) -6.52288): 0.2035
- Mean normalized FRET response, azi-CRD PAM DRC (mGluR2 [1]; log[Glutamate] (M) -7): 0.1104
- Mean normalized FRET response, azi-CRD PAM DRC (mGluR2 [1]; log[Glutamate] (M) -7.30103): 0.08348
- Mean normalized FRET response, azi-CRD PAM DRC (mGluR2 [1]; log[Glutamate] (M) -7.69897): 0
- SNAP-m2 - ΔEfficacy, Mean ΔEfficacy (mGluR2 [2]; [5]): 7.324
- SNAP-m2 FRET response (PAM DRC) (mGluR2 [2]; log[Glutamate] (M) -3): -1.073
- SNAP-m2 FRET response (PAM DRC), Mean (mGluR2 [2]; log[Glutamate] (M) -3): -1.073
- SNAP-m2 FRET response (PAM DRC) (mGluR2 [2]; log[Glutamate] (M) -4.1549): -1.073 and -1.043 and -1.045 and -1.173
- SNAP-m2 FRET response (PAM DRC), Mean (mGluR2 [2]; log[Glutamate] (M) -4.1549): -1.083
- SNAP-m2 FRET response (PAM DRC) (mGluR2 [2]; log[Glutamate] (M) -4.52288): -1.073 and -1.028 and -1.065 and -1.205
- SNAP-m2 FRET response (PAM DRC), Mean (mGluR2 [2]; log[Glutamate] (M) -4.52288): -1.093
- SNAP-m2 FRET response (PAM DRC), Mean (mGluR2 [2]; log[Glutamate] (M) -5): -0.9075
- SNAP-m2 FRET response (PAM DRC), Mean (mGluR2 [2]; log[Glutamate] (M) -5.39794): -0.5948
- SNAP-m2 FRET response (PAM DRC), Mean (mGluR2 [2]; log[Glutamate] (M) -5.82391): -0.3038
- SNAP-m2 FRET response (PAM DRC) (mGluR2 [2]; log[Glutamate] (M) -6.52288): -0.05434 and 0 and -0.02048 and -0.1132
- SNAP-m2 FRET response (PAM DRC), Mean (mGluR2 [2]; log[Glutamate] (M) -6.52288): -0.047
- SNAP-m2 FRET response (PAM DRC) (mGluR2 [2]; log[Glutamate] (M) -7): 0
- SNAP-m2 FRET response (PAM DRC), Mean (mGluR2 [2]; log[Glutamate] (M) -7): 0
- SNAP-m2 FRET response (PAM DRC) (mGluR2 [2]; log[Glutamate] (M) -7.30103): 0
- SNAP-m2 FRET response (PAM DRC), Mean (mGluR2 [2]; log[Glutamate] (M) -7.30103): 0
- SNAP-m2 FRET response (PAM DRC) (mGluR2 [2]; log[Glutamate] (M) -7.69897): 0
- SNAP-m2 FRET response (PAM DRC), Mean (mGluR2 [2]; log[Glutamate] (M) -7.69897): 0
- Mean max response (normalized max ΔFRET) (mGluR2 [2]; SNAP-m2, 1 mM glutamate + 5 μM modulator, normalized to 1 mM glutamate): 1.07
- Mean ΔPotency (mGluR2 [2]; SNAP-m2, 5μM modulator, (([modulator + glutamate]EC50 – [glutamate] EC50)/[glutamate] EC50) × 100): -67.8391
- Mean ΔEfficacy (mGluR2 [2]; SNAP-m2, 5μM modulator, ([1 mM glutamate + modulator] - [1 mM glutamate]) × 100): 7.324
- Hill slope of glutamate titration (mGluR2 [2]; SNAP-m2 sensor, + 5 μM modulator): –1.43
- azi-ECL2 - ΔEfficacy, Mean ΔEfficacy (mGluR2 [3]; [5]): 24.615
- Mean ΔPotency (mGluR2 [3]; 5μM modulator, (([modulator + glutamate]EC50 – [glutamate] EC50)/[glutamate] EC50) × 100): -30.8994
- Mean max response (normalized max ΔFRET) (mGluR2 [3]; azi-ECL2, 1 mM glutamate + 5 μM modulator, normalized to 1 mM glutamate): 1.25
- Hill slope of glutamate titration (mGluR2 [3]; azi-ECL2 sensor, + 5 μM modulator): 0.98
- Mean normalized azi-ECL2 FRET response (mGluR2 [3]; log[Glutamate] (M) -3): 1.246
- Mean normalized azi-ECL2 FRET response (mGluR2 [3]; log[Glutamate] (M) -4.1549): 1.162
- Mean normalized azi-ECL2 FRET response (mGluR2 [3]; log[Glutamate] (M) -4.52288): 1.05
- Mean normalized azi-ECL2 FRET response (mGluR2 [3]; log[Glutamate] (M) -5): 0.9021
- Mean normalized azi-ECL2 FRET response (mGluR2 [3]; log[Glutamate] (M) -5.39794): 0.6628
- Mean normalized azi-ECL2 FRET response (mGluR2 [3]; log[Glutamate] (M) -5.82391): 0.3586
- Mean normalized azi-ECL2 FRET response (mGluR2 [3]; log[Glutamate] (M) -6.52288): 0.0516
- Mean normalized azi-ECL2 FRET response (mGluR2 [3]; log[Glutamate] (M) -7): 0.00565
- Mean normalized azi-ECL2 FRET response (mGluR2 [3]; log[Glutamate] (M) -7.30103): 0
- Mean normalized azi-ECL2 FRET response (mGluR2 [3]; log[Glutamate] (M) -7.69897): 0
- Effect of modulator itself on intracellular calcium flux (mGluR2 [4]): Direct activation of mGluR2
Structure (SMILES): COc1ccccc1Oc1ccc(N(Cc2cccnc2)S(=O)(=O)CC(F)(F)F)cc1 [LY487379, N -(4-(2-Methoxyphenoxy)phenyl)-N -(2,2,2− trifluoroethylsulfonyl)pyrid-3-ylmethylamine]
- azi-CRD - ΔEfficacy, individual cell responses (mGluR2 [1]; 5μM LY487379, single cells): 81.7927 and 91.1647 and 102.83 and 105.34 and 78.0041 and 66.6667 and 72.6804 and 69.5464 and 76.2911 and 41.9214 and 42.0188 and 53.8462 and 0 and 21.4575 and 34.4595 and 42.2449 and 30.2041 and 33.2258 and 28.7834
- ΔPotency, individual cell (mGluR2 [1]; azi-CRD, 5μM modulator, calculated from individual cell responses): -86.3622 and -82.4274 and -82.7128 and -78.2764 and -89.1123 and -88.282 and -87.867 and -88.628 and -87.1232 and -72.2401 and -70.8565 and -64.63 and -55.982 and -66.7055 and -27.5303 and -19.9202 and -46.4693 and -21.7362 and -27.2709 and -11.7911 and -36.6107 and -57.7116
- SNAP-m2 FRET response (PAM DRC) (mGluR2 [2]; log[Glutamate] (M) -5): -0.9102 and -0.7407 and -0.8397 and -1.14
- SNAP-m2 FRET response (PAM DRC) (mGluR2 [2]; log[Glutamate] (M) -5.39794): -0.5434 and -0.4233 and -0.4506 and -0.9619
- SNAP-m2 FRET response (PAM DRC) (mGluR2 [2]; log[Glutamate] (M) -5.82391): -0.2581 and -0.136 and -0.1638 and -0.657
- ΔPotency, individual cell responses (mGluR2 [3]; 5μM modulator, single cells, (([modulator + glutamate]EC50 – [glutamate] EC50)/[glutamate] EC50) × 100): -50.558 and -25.4476 and -23.8904 and -47.6382 and -34.9857 and -54.4511 and -26.0316 and -30.3706 and -10.8251 and 8.313 and -4.368 and -31.1486 and -23.7197 and -38.0027 and -24.5685 and -37.4665 and -50.1273 and -31.7846 and -24.8874 and -46.4706
- ΔEfficacy, individual cell responses (mGluR2 [3]; 5μM modulator, single cells, ([1 mM glutamate + modulator] - [1 mM glutamate]) × 100): 52.1008 and 4.706 and 3.279 and -3.644 and 40.8403 and 19.2658 and 55.7571
- Live-cell FRET max response normalized to 1mM glutamate (mGluR2 [3]; azi-ECL2 sensor, Glutamate + 5μM LY487379, individual values (N=7)): 1.4084 and 1.193 and 1.558 and 1.521 and 1.047 and 1.033 and 0.9636
